From patent US11958854B2 (Hydra Biosciences, LLC, priority 2013, dated 2024)

These molecules were tested against T1, hTRPC4 (Homo sapiens, UniProt Q9UBN4) (assay: Whole-cell patch clamp, inward current (Table B)). Conditions: IC50 estimated by testing at 5 μM and 500 nM, all batches, read-out: hTRPC4 Patch Inwd (nM) (All Batches).
T1 sequence (Q9UBN4 1-977): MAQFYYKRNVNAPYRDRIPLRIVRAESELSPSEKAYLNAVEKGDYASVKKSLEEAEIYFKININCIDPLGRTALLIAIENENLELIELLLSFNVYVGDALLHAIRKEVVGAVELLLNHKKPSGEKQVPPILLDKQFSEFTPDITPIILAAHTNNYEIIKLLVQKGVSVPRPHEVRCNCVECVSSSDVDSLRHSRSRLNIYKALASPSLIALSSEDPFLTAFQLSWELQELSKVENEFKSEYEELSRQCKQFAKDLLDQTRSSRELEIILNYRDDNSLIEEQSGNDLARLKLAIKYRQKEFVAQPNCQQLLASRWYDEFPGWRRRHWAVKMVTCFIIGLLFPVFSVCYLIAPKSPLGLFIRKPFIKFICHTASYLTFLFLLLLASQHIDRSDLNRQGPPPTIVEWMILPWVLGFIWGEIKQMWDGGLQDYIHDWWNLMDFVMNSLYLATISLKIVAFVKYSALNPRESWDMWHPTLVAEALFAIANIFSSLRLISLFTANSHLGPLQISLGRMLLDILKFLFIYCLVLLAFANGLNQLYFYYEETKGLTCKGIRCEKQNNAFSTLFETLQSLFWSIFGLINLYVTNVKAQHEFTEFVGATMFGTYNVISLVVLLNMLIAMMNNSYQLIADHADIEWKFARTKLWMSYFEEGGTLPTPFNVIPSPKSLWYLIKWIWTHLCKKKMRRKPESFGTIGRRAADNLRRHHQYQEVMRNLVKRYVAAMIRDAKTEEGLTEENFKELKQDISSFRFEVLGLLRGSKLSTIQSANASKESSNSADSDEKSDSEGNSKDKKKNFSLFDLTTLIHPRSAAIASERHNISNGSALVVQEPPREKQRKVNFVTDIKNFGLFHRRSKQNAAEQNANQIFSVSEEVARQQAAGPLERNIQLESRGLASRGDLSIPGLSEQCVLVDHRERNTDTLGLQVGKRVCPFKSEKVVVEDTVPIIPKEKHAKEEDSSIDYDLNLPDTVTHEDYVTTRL
Type: cell-based
Source text: Patch clamp experiments permit the detection of currents through the TRPC5 channel in the cell line described above. In normal whole-cell patch clamp recordings, a glass electrode is brought into contact with a single cell and a high-resistance (gigaohm) seal is established with the cell membrane. The membrane is then ruptured to achieve the whole-cell configuration, permitting control of the voltage of the cell membrane and measurement of currents flowing across the membrane using the amplifier attached to the electrode and resulting in the replacement of cytoplasm with the pipette solution. A perfusion system permits control of the extracellular solution, including the addition of blockers and activators of the current.
TRPC5 cells were induced 20-48 hours, removed from growth plates, and replated at low density (to attain good single-cell physical separation) on glass coverslips for measurement. In some cases, cells were grown in low density overnight on glass coverslips. Patch clamp recordings were made in the whole-cell mode with a holding potential of −40 mV. Every 5 seconds, a voltage ramp was applied from −120 to +100 mV, 400 ms in duration. Currents elicited were quantified at −80 mV and +80 mV. […] The external solution consisted of 150 mM NaCl, 4.5 mM KCl, 1 mM MgCl2, 2 mM CaCl2), 10 mM HEPES, 10 mM glucose, 1 mM EGTA, pH 7.4. […] Potential blockers were tested for ability to block both inward and outward currents in the continued presence of LaCl3.
“F” refers to agonist compounds. “ND” refers to compounds wherein the IC50 was not determined.

IC50, < 100 nM:
Cn1c(=O)n(CCCO)c(=O)c2c1nc(Oc1cccc(OC(F)(F)F)c1)n2Cc1ccc(Cl)cc1 [Example 30], CCCOc1nc2c(c(=O)n(CCCO)c(=O)n2C)n1Cc1ccc(Cl)cc1 [Example 82], CCn1c(=O)n(CCCO)c(=O)c2c1nc(Oc1cccc(OC(F)(F)F)c1)n2Cc1ccccc1 [Example 145], Cc1cnc(Cn2c(Oc3cccc(OC(F)(F)F)c3)nc3c2c(=O)n(CCCO)c(=O)n3C)s1 [Example 161], CC(C)c1ccccc1-c1nc2c(c(=O)n(CCCO)c(=O)n2C)n1Cc1ccccc1 [Example 485], CC(C)CCn1c(Oc2cccc(OC(F)(F)F)c2)nc2c1c(=O)n(CCCO)c(=O)n2C [Example 587]
